Columns and labels:
[1] = Powder dissolution test in 0.1 mol∙L^−1 HCl; type: physicochemical; conditions: after 25 min, 37 ± 0.5 °C
Experimental: Co., Ltd., Shanghai, China) at 25 °C in five different solutions (pH 1, 2, 4, 8 and water, respectively) using the shake-flask method. Excess sample was added in the solvent and the suspension was shaken for 72 h in an air bath. The suspension was filtered through a 0.45 μm Millipore filter. Then, the GA concentration was determined using HPLC (Agilent 1200, Santa Clara, CA, USA). […] Approximately 50 mg of the sample (here single GA and cocrystals equivalent to 50 mg of GA) were placed in 900 mL dissolution media. Four milliliters of the suspensions were taken at appropriate intervals and immediately replaced by 4 mL of fresh dissolution media. All samples were filtered through a 0.45 μm Millipore filter. The concentration of GA in all samples were determined by HPLC. All tests were repeated thrice. Bioavailability in vivo was assayed using SD rats. […] The intragastric suspensions were prepared by suspending GA or the cocrystal (equivalent to same amount of GA) in 5% sodium carboxymethyl cellulose. Thereafter, the intragastric suspensions were orally administered to the rats at a single dose of 50 mg∙kg^-1. An approximately 500 μL blood sample was obtained from the eye canthus and collected into 1.5 mL heparinized plastic centrifuge tubes at the set time point after intragastric administration. […] The pharmacokinetic parameters were calculated using DAS 2.0 software.

[2] = Oral bioavailability / pharmacokinetics in SD rats; type: in vivo; conditions: rat, single dose 50 mg∙kg^−1 (GA equivalent), n = 6, GA in plasma
Experimental: Co., Ltd., Shanghai, China) at 25 °C in five different solutions (pH 1, 2, 4, 8 and water, respectively) using the shake-flask method. Excess sample was added in the solvent and the suspension was shaken for 72 h in an air bath. The suspension was filtered through a 0.45 μm Millipore filter. Then, the GA concentration was determined using HPLC (Agilent 1200, Santa Clara, CA, USA). […] Approximately 50 mg of the sample (here single GA and cocrystals equivalent to 50 mg of GA) were placed in 900 mL dissolution media. Four milliliters of the suspensions were taken at appropriate intervals and immediately replaced by 4 mL of fresh dissolution media. All samples were filtered through a 0.45 μm Millipore filter. The concentration of GA in all samples were determined by HPLC. All tests were repeated thrice. Bioavailability in vivo was assayed using SD rats. […] The intragastric suspensions were prepared by suspending GA or the cocrystal (equivalent to same amount of GA) in 5% sodium carboxymethyl cellulose. Thereafter, the intragastric suspensions were orally administered to the rats at a single dose of 50 mg∙kg^-1. An approximately 500 μL blood sample was obtained from the eye canthus and collected into 1.5 mL heparinized plastic centrifuge tubes at the set time point after intragastric administration. GA was extracted from plasma by protein precipitation. One hundred microliters of plasma was mixed with internal standard solution (20 μL) in the centrifuge tube; then, the solution of acetonitrile formic acid (2%, v/v) was added to precipitate the protein. […] Then, the supernatant was taken for determining the concentration of GA by the LC-MS/MS (MS:3200 QTRAP, AB SCIEX, MA, USA, LC: Agilent1200, Santa Clara, CA, USA) method. The blood concentration-time curve was drawn by taking blood sampling time as the horizontal coordinate and GA concentration as the vertical coordinate. The pharmacokinetic parameters were calculated using DAS 2.0 software.

α-glucosidase = α-glucosidase (Saccharomyces cerevisiae, UniProt P53341); test: α-glucosidase inhibitory activity in vitro (pNPG substrate, absorbance at 405 nm); type: biochemical; conditions: in vitro inhibition rate, Figure 4
α-glucosidase, sequence (P53341 whole entry): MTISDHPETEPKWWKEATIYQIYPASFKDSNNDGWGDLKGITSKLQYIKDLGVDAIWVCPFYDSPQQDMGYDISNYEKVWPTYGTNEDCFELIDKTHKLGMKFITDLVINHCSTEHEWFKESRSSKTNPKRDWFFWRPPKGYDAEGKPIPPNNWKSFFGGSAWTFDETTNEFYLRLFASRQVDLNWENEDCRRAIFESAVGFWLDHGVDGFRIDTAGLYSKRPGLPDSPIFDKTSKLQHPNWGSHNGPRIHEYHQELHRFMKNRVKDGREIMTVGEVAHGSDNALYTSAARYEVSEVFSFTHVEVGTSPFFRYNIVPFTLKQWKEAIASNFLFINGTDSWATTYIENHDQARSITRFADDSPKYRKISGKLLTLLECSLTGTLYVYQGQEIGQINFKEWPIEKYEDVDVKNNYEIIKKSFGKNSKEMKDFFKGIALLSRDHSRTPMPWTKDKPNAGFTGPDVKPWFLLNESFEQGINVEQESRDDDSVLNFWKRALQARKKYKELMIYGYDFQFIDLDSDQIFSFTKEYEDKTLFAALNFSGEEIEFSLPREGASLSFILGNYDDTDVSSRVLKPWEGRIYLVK
Experimental: Briefly, accurately weighed α-glucosidase was dissolved in 0.1 mol∙L^−1 potassium phosphate buffer (pH 6.8) to produce 50 μL of enzyme solution with a concentration of 1.0 U∙mL^−1. Fifty microliters of enzyme solution and 50 μL of test sample were mixed in a well of a microtiter plate to incubate for 10 min at 37 °C. Three millimoles of pNPG in the same buffer was used as a substrate solution. After pre-incubation at 37 °C for 10 min, 50 μL of pNPG solution was added into above enzyme solution. The enzymatic reaction was allowed to proceed at 37 °C for 10 min, following the measurement of 4-nitrophenol absorbance at 405 nm on a microplate spectrophotometer. The solution without α-glucosidase was used as a blank. The solution without the test sample was used as a test. The solution without the test sample and α-glucosidase was used as a control.
IC50 values were obtained as the mean of three independent experiments, which were constructed by testing a series of concentrations (i.e., three curves were obtained, each in triplicate).

## O=C(O)c1cc(O)c(O)c(O)c1 [GA, gallic acid]
[1]
  cumulative dissolution: 80%
[2]
  AUC(0-inf): 4200 ± 1200 ng·h/mL
  AUC(0-t): 4100 ± 1200 ng·h/mL
  Cmax: 1500 ± 500 ng/mL

## O=C1CCC(=O)N1 [succinimide]
α-glucosidase
  α-glucosidase inhibitory activity (in words): no inhibitory activity

Source: publication PMC7179128, “Characterizations and Assays of α-Glucosidase Inhibition Activity on Gallic Acid Cocrystals: Can the Cocrystals be Defined as a New Chemical Entity During Binding with the α-Glucosidase?” (Molecules, 2020)
